These results are taken from patent publication US20050070510A1, “Substituted tetracycline compounds as synergistic antifungal agents” (Paratek Pharmaceuticals, Inc., priority 2001, published 2005).

The data set has as its system COS-1 cells. Put plainly: In vitro mammalian cytotoxicity assay (Resazurin). A general note: The colour change of resazurin is a common sign of viable cells or microbes.
On to `CN(C)CC(=O)NCc1cc(N(C)C)c2c(c1O)C(=O)C1=C(O)[C@]3(C#N)C(=O)C(C(N)=O)=C(O)[C@@H](N(C)C)[C@]3(N)C[C@]1(N)C2` [LG], for which the “In Vitro Cytotoxicity” value is “** (toxicities less than 25 μg/mL are represented by **)”.

On to `CCc1cc(C#Cc2ccc(OC)cc2)c(O)c2c1C[C@@]1(N)C[C@@]3(N)[C@H](N(C)C)C(O)=C(C(N)=O)C(=O)[C@@]3(C#N)C(O)=C1C2=O` [LH], for which the “In Vitro Cytotoxicity” value is on record as “** (toxicities less than 25 μg/mL are represented by **)”.

Take `CCC(=O)c1ccc(O)c2c1C[C@@]1(N)C[C@@]3(N)[C@H](N(C)C)C(O)=C(C(N)=O)C(=O)[C@@]3(C#N)C(O)=C1C2=O` [LI]: the “In Vitro Cytotoxicity” value was “** (toxicities less than 25 μg/mL are represented by **)”.

`CC(=O)NCc1cc(-c2ccccc2)c2c(c1O)C(=O)C1=C(O)[C@]3(C#N)C(=O)C(C(N)=O)=C(O)[C@@H](N(C)C)[C@]3(N)C[C@]1(N)C2` [LJ]: the “In Vitro Cytotoxicity” value is given as “* (toxicities greater than >25 μg/ml are represented by *)”.

Consider `CN(C)[C@@H]1C(O)=C(C(N)=O)C(=O)[C@@]2(C#N)C(O)=C3C(=O)c4c(O)ccc(-c5ccccc5)c4C[C@@]3(N)C[C@@]12N` [LK], for which the “In Vitro Cytotoxicity” value is given as “** (toxicities less than 25 μg/mL are represented by **)”.

Take `CC(=O)c1cc(C(C)=O)c2c(c1O)C(=O)C1=C(O)[C@]3(C#N)C(=O)C(C(N)=O)=C(O)[C@@H](N(C)C)[C@]3(N)C[C@]1(N)C2` [LL]: the “In Vitro Cytotoxicity” value was “* (toxicities greater than >25 μg/ml are represented by *)”.

On to `CCOC(=O)CNC(=O)c1cccc(-c2cc(N(C)C)c3c(c2O)C(=O)C2=C(O)[C@]4(C#N)C(=O)C(C(N)=O)=C(O)[C@@H](N(C)C)[C@]4(N)C[C@]2(N)C3)c1` [LM], for which the “In Vitro Cytotoxicity” value is reported as “** (toxicities less than 25 μg/mL are represented by **)”.

Turning to `CN(C)c1cc(NCCc2ccccc2)c(O)c2c1C[C@@]1(N)C[C@@]3(N)[C@H](N(C)C)C(O)=C(C(N)=O)C(=O)[C@@]3(C#N)C(O)=C1C2=O` [LN], the “In Vitro Cytotoxicity” value is “** (toxicities less than 25 μg/mL are represented by **)”.

With `CN(C)c1cc(NCc2ccccc2)c(O)c2c1C[C@@]1(N)C[C@@]3(N)[C@H](N(C)C)C(O)=C(C(N)=O)C(=O)[C@@]3(C#N)C(O)=C1C2=O` [LO], the “In Vitro Cytotoxicity” value was “** (toxicities less than 25 μg/mL are represented by **)”.

With `CN(C)[C@@H]1C(O)=C(C(N)=O)C(=O)[C@@]2(C#N)C(O)=C3C(=O)c4c(O)c(-c5ccc6c(c5)OCO6)cc(-c5ccc6c(c5)OCO6)c4C[C@@]3(N)C[C@@]12N` [LP], the “In Vitro Cytotoxicity” value is recorded as “** (toxicities less than 25 μg/mL are represented by **)”.

Regarding `COc1ccc(CNC2CCCCC2)cc1-c1ccc(O)c2c1C[C@@]1(N)C[C@@]3(N)[C@H](N(C)C)C(O)=C(C(N)=O)C(=O)[C@@]3(C#N)C(O)=C1C2=O` [LQ], the “In Vitro Cytotoxicity” value is “* (toxicities greater than >25 μg/ml are represented by *)”.

On to `CCN(CC)Cc1ccc(OC)c(-c2ccc(O)c3c2C[C@@]2(N)C[C@@]4(N)[C@H](N(C)C)C(O)=C(C(N)=O)C(=O)[C@@]4(C#N)C(O)=C2C3=O)c1` [LR], for which the “In Vitro Cytotoxicity” value is recorded as “* (toxicities greater than >25 μg/ml are represented by *)”.

On to `COc1ccc(CNC(C)C)cc1-c1ccc(O)c2c1C[C@@]1(N)C[C@@]3(N)[C@H](N(C)C)C(O)=C(C(N)=O)C(=O)[C@@]3(C#N)C(O)=C1C2=O` [LS], for which the “In Vitro Cytotoxicity” value is given as “* (toxicities greater than >25 μg/ml are represented by *)”.

On to `CCCNCc1ccc(OC)c(-c2ccc(O)c3c2C[C@@]2(N)C[C@@]4(N)[C@H](N(C)C)C(O)=C(C(N)=O)C(=O)[C@@]4(C#N)C(O)=C2C3=O)c1` [LV], for which the “In Vitro Cytotoxicity” value was “* (toxicities greater than >25 μg/ml are represented by *)”.

As to `COc1ccc(CNCC(C)C)cc1-c1ccc(O)c2c1C[C@@]1(N)C[C@@]3(N)[C@H](N(C)C)C(O)=C(C(N)=O)C(=O)[C@@]3(C#N)C(O)=C1C2=O` [LW], the “In Vitro Cytotoxicity” value is listed as “* (toxicities greater than >25 μg/ml are represented by *)”.

As to `CN(C)c1cc(CNCCc2ccccc2)c(O)c2c1C[C@@]1(N)C[C@@]3(N)[C@H](N(C)C)C(O)=C(C(N)=O)C(=O)[C@@]3(C#N)C(O)=C1C2=O` [LX], the “In Vitro Cytotoxicity” value is “* (toxicities greater than >25 μg/ml are represented by *)”.

For the compound `CCCCc1ccc(-c2cc(N(C)C)c3c(c2O)C(=O)C2=C(O)[C@]4(C#N)C(=O)C(C(N)=O)=C(O)[C@@H](N(C)C)[C@]4(N)C[C@]2(N)C3)cc1` [LY], the “In Vitro Cytotoxicity” value was “** (toxicities less than 25 μg/mL are represented by **)”.

On to `CCc1ccc(-c2cc(N(C)C)c3c(c2O)C(=O)C2=C(O)[C@]4(C#N)C(=O)C(C(N)=O)=C(O)[C@@H](N(C)C)[C@]4(N)C[C@]2(N)C3)cc1` [LZ], for which the “In Vitro Cytotoxicity” value is given as “** (toxicities less than 25 μg/mL are represented by **)”.

As to `CN(C)c1cc(-c2ccc(OC(F)(F)F)cc2)c(O)c2c1C[C@@]1(N)C[C@@]3(N)[C@H](N(C)C)C(O)=C(C(N)=O)C(=O)[C@@]3(C#N)C(O)=C1C2=O` [MA], the “In Vitro Cytotoxicity” value was “** (toxicities less than 25 μg/mL are represented by **)”.

On to `CN(C)[C@@H]1C(O)=C(C(N)=O)C(=O)[C@@]2(C#N)C(O)=C3C(=O)c4c(O)ccc(C(=O)Cc5ccccc5)c4C[C@@]3(N)C[C@@]12N` [MB], for which the “In Vitro Cytotoxicity” value is “* (toxicities greater than >25 μg/ml are represented by *)”.

With `CN(C)c1cc(CNC(=O)NCC(C)(C)C)c(O)c2c1C[C@@]1(N)C[C@@]3(N)[C@H](N(C)C)C(O)=C(C(N)=O)C(=O)[C@@]3(C#N)C(O)=C1C2=O` [MC], the “In Vitro Cytotoxicity” value was “* (toxicities greater than >25 μg/ml are represented by *)”.

Regarding `C=CCCNC(=O)NCc1cc(N(C)C)c2c(c1O)C(=O)C1=C(O)[C@]3(C#N)C(=O)C(C(N)=O)=C(O)[C@@H](N(C)C)[C@]3(N)C[C@]1(N)C2` [MD], the “In Vitro Cytotoxicity” value was “* (toxicities greater than >25 μg/ml are represented by *)”.

For the compound `CN(C)c1cc(CNC(=O)Nc2ccccc2)c(O)c2c1C[C@@]1(N)C[C@@]3(N)[C@H](N(C)C)C(O)=C(C(N)=O)C(=O)[C@@]3(C#N)C(O)=C1C2=O` [ME], the “In Vitro Cytotoxicity” value is “* (toxicities greater than >25 μg/ml are represented by *)”.

With `CC(C)CNC(=O)NCc1cc(N(C)C)c2c(c1O)C(=O)C1=C(O)[C@]3(C#N)C(=O)C(C(N)=O)=C(O)[C@@H](N(C)C)[C@]3(N)C[C@]1(N)C2` [MF], the “In Vitro Cytotoxicity” value is on record as “* (toxicities greater than >25 μg/ml are represented by *)”.

For the compound `CCCCNC(=O)NCc1cc(N(C)C)c2c(c1O)C(=O)C1=C(O)[C@]3(C#N)C(=O)C(C(N)=O)=C(O)[C@@H](N(C)C)[C@]3(N)C[C@]1(N)C2` [MG], the “In Vitro Cytotoxicity” value was “* (toxicities greater than >25 μg/ml are represented by *)”.

For the compound `CCNC(=O)NCc1cc(N(C)C)c2c(c1O)C(=O)C1=C(O)[C@]3(C#N)C(=O)C(C(N)=O)=C(O)[C@@H](N(C)C)[C@]3(N)C[C@]1(N)C2` [MH], the “In Vitro Cytotoxicity” value was “* (toxicities greater than >25 μg/ml are represented by *)”.

As for `CN(C)c1cc(NCc2ccc3c(c2)OCO3)c(O)c2c1C[C@@]1(N)C[C@@]3(N)[C@H](N(C)C)C(O)=C(C(N)=O)C(=O)[C@@]3(C#N)C(O)=C1C2=O` [MK], the “In Vitro Cytotoxicity” value is “** (toxicities less than 25 μg/mL are represented by **)”.

`CC(C)CNCc1cc(N(C)C)c2c(c1O)C(=O)C1=C(O)[C@]3(C#N)C(=O)C(C(N)=O)=C(O)[C@@H](N(C)C)[C@]3(N)C[C@]1(N)C2` [ML]: the “In Vitro Cytotoxicity” value is given as “* (toxicities greater than >25 μg/ml are represented by *)”.

Take `CC(C)CNC(=N)Nc1cc(N(C)C)c2c(c1O)C(=O)C1=C(O)[C@]3(C#N)C(=O)C(C(N)=O)=C(O)[C@@H](N(C)C)[C@]3(N)C[C@]1(N)C2` [MM]: the “In Vitro Cytotoxicity” value is recorded as “* (toxicities greater than >25 μg/ml are represented by *)”.

Turning to `CN(C)c1cc(CCc2ccccc2)c(O)c2c1C[C@@]1(N)C[C@@]3(N)[C@H](N(C)C)C(O)=C(C(N)=O)C(=O)[C@@]3(C#N)C(O)=C1C2=O` [MN], the “In Vitro Cytotoxicity” value is listed as “** (toxicities less than 25 μg/mL are represented by **)”.

For the compound `CCCCCC(=O)c1ccc(O)c2c1C[C@@]1(N)C[C@@]3(N)[C@H](N(C)C)C(O)=C(C(N)=O)C(=O)[C@@]3(C#N)C(O)=C1C2=O` [MO], the “In Vitro Cytotoxicity” value is reported as “** (toxicities less than 25 μg/mL are represented by **)”.

Take `CCCCCN(CCCCC)Cc1cc(N(C)C)c2c(c1O)C(=O)C1=C(O)[C@]3(C#N)C(=O)C(C(N)=O)=C(O)[C@@H](N(C)C)[C@]3(N)C[C@]1(N)C2` [MP]: the “In Vitro Cytotoxicity” value is listed as “** (toxicities less than 25 μg/mL are represented by **)”.

For the compound `CN(C)c1cc(NCc2ccc(OC(F)(F)F)cc2)c(O)c2c1C[C@@]1(N)C[C@@]3(N)[C@H](N(C)C)C(O)=C(C(N)=O)C(=O)[C@@]3(C#N)C(O)=C1C2=O` [MQ], the “In Vitro Cytotoxicity” value is “** (toxicities less than 25 μg/mL are represented by **)”.

On to `CN(C)c1cc(NCC2CCCCC2)c(O)c2c1C[C@@]1(N)C[C@@]3(N)[C@H](N(C)C)C(O)=C(C(N)=O)C(=O)[C@@]3(C#N)C(O)=C1C2=O` [MR], for which the “In Vitro Cytotoxicity” value is on record as “** (toxicities less than 25 μg/mL are represented by **)”.

As for `CCCCCCOC(=O)NCc1cc(N(C)C)c2c(c1O)C(=O)C1=C(O)[C@]3(C#N)C(=O)C(C(N)=O)=C(O)[C@@H](N(C)C)[C@]3(N)C[C@]1(N)C2` [MS], the “In Vitro Cytotoxicity” value was “** (toxicities less than 25 μg/mL are represented by **)”.

In the case of `COCCOC(=O)NCc1cc(N(C)C)c2c(c1O)C(=O)C1=C(O)[C@]3(C#N)C(=O)C(C(N)=O)=C(O)[C@@H](N(C)C)[C@]3(N)C[C@]1(N)C2` [MT], the “In Vitro Cytotoxicity” value is given as “* (toxicities greater than >25 μg/ml are represented by *)”.

Take `Cc1ccc(OC(=O)NCc2cc(N(C)C)c3c(c2O)C(=O)C2=C(O)[C@]4(C#N)C(=O)C(C(N)=O)=C(O)[C@@H](N(C)C)[C@]4(N)C[C@]2(N)C3)cc1` [MU]: the “In Vitro Cytotoxicity” value was “** (toxicities less than 25 μg/mL are represented by **)”.

`CN(C)c1cc(CNC(=O)Oc2ccc(Br)cc2)c(O)c2c1C[C@@]1(N)C[C@@]3(N)[C@H](N(C)C)C(O)=C(C(N)=O)C(=O)[C@@]3(C#N)C(O)=C1C2=O` [MV]: the “In Vitro Cytotoxicity” value was “** (toxicities less than 25 μg/mL are represented by **)”.

`CN(C)c1cc(CNC(=O)Nc2ccc(Cl)cc2)c(O)c2c1C[C@@]1(N)C[C@@]3(N)[C@H](N(C)C)C(O)=C(C(N)=O)C(=O)[C@@]3(C#N)C(O)=C1C2=O` [MW]: the “In Vitro Cytotoxicity” value is listed as “** (toxicities less than 25 μg/mL are represented by **)”.
